Measured values as given in article PMC3991719 (PLoS ONE, 2014).

Key:
[1] = system: S. aureus MN8; type: cell-based, Staphylococcus aureus
[2] = system: TSST-1 production by S. aureus MN8; type: cell-based, Staphylococcus aureus
[3] = system: TSST-1 production by S. aureus MNPE; type: cell-based, Staphylococcus aureus
[4] = system: α-toxin production by S. aureus MNPE; type: cell-based, Staphylococcus aureus
[5] = system: S. aureus MNPE; type: cell-based, Staphylococcus aureus
[6] = system: L. crispatus; test: L. crispatus growth and culture pH, 9 h assay; type: cell-based, Lactobacillus crispatus; conditions: data not shown; for Alteration of L. crispatus media pH compared to untreated controls: broth cultures, pH meter; for Effect on L. crispatus growth (CFUs/ml): human normal vaginal isolate, 9 h assay, plate counts on Todd Hewitt agar
Experimental: Cultures of a human normal vaginal isolate of L. crispatus were subjected to the same 9 hour assay as used to determine peptide antimicrobial effects on S. aureus. CFUs/ml were determined by dilution plate counts on Todd Hewitt agar (BD). The pHs of overnight broth cultures were also determined with use of a standard pH meter.

[7] = system: IL-8 production by HVECs exposed to S. aureus MN8; type: cell-based, human
[8] = system: human vaginal epithelial cells (HVECs)

Row | Substance | Antimicrobial activity against S. aureus [1] | Reduction of S. aureus growth [1] | Lowest dose giving complete inhibition of TSST-1 production [2] | Effect on S. aureus MN8 growth (CFUs/ml) [1] | TSST-1 inhibition activity (in words) [2] | TSST-1 inhibition activity (in words) [3] | Concentration at which inhibition of α-toxin production was shown [4] | Effect on S. aureus MNPE growth [5] | Alteration of L. crispatus media pH compared to untreated controls [6] | Effect on L. crispatus growth (CFUs/ml) [6] | IL-8 production by HVECs incubated with MN8 and peptide [7] | Cytotoxicity to HVECs [8] | Inhibition of α-toxin production (in words) [4]
1 | HNP-1: human defensin peptide purchased from Sigma-Aldrich | no antimicrobial activity was observed | 1 log | 0.005 µg/mL |  |  |  |  |  |  |  |  |  | 
2 | SP-2: hemoglobin-like synthetic peptide, 50% positively-charged amino acids (SKPKKKTYKPHKDLSHGSAKKK) |  |  |  | without affecting bacterial growth | showed the greatest TSST-1 inhibition activity | showed the greatest TSST-1 inhibition activity | 0.005 µg/mL | without affecting bacterial growth | nor was alteration in media pH observed | No inhibition of growth | 3.6 ± 7.2 pg/mL | not cytotoxic | 
3 | Hbg-2: Hbg-1 peptide with scrambled sequence (STKPFFYFLHTQVKASPTSHDG) |  |  |  | not antimicrobial at any concentration tested | comparably active as Hbg-1 |  |  |  | nor was alteration in media pH observed | No inhibition of growth |  |  | 
4 | HNP-2: human defensin peptide purchased from Sigma-Aldrich (CYCRIPACIAGERRYGTCIYQGRLWAFCC) | no antimicrobial activity was observed | 1 log | 0.005 µg/mL |  |  |  |  |  |  |  |  |  | 
5 | SP-1: hemoglobin-like synthetic peptide, 0% positively-charged amino acids (SFPTTATYFPAFDLSAGSAQVA) |  |  |  | lacked antimicrobial | lacked antimicrobial (data not shown) and TSST-1 inhibition activity | lacked antimicrobial (data not shown) and TSST-1 inhibition activity |  | lacked antimicrobial | nor was alteration in media pH observed | No inhibition of growth |  |  | no inhibition of α-toxin production
